Laboratory results reported in US9149535B2, “Polymers and the preparation of nanogel drug cocktails” (University of South Carolina, priority 2012, dated 2015).

Test system: cancer cells
Test: Intracellular trafficking by confocal laser scanning microscopy (CLSM)
Type: cell-based
Conditions: 3 hr
Source text: To monitor the intracellular trafficking of nanogel, confocal laser scanning microscopy (CLSM) was employed. […] Since only about 20% DOX could be released from nanogel under the intracellular environment (FIG. 2A), the signals should mainly represent ND nanogel. […] Due to its relatively large size, it will be impossible for it to pass the nuclear pore complex, which is about 40 nm.

With `COc1cccc2c1C(=O)c1c(O)c3c(c(O)c1C2=O)C[C@@](O)(C(=O)CO)C[C@@H]3O[C@H]1C[C@H](N)[C@H](O)[C@H](C)O1` [DOX, doxorubicin] the intracellular localisation was “preferentially labels their nuclei”.
